In patent publication US9199943B2, “2-(poly-substituted aryl)-6-amino-5-halo-4-pyrimidinecarboxylic acids and their use as herbicides” (Dow AgroSciences, LLC., priority 2006, dated 2015):

Legend:
[1] = tested on: CHEAL = lambsquarter (Chenopodium album); test: General postemergence herbicidal activity, lambsquarter; assay type: in vivo; conditions: Chenopodium album, post-emergence, 336 h; post-emergent, 140 g ai/ha, visual score after 14 days (0 no injury, 100 complete kill)
Description: Seeds or nutlets of the desired test plant species were planted in Sun Gro MetroMix® 306 planting mixture, which typically has a pH of 6.0 to 6.8 and an organic matter content of about 30 percent, in plastic pots with a surface area of 64 square centimeters. When required to ensure good germination and healthy plants, a fungicide treatment and/or other chemical or physical treatment was applied. The plants were grown for 7-21 days in a greenhouse with an approximate 15 hour photoperiod which was maintained at about 23-29° C. during the day and 22-28° C. during the night. Nutrients and water were added on a regular basis and supplemental lighting was provided with overhead metal halide 1000-Watt lamps as necessary. The plants were employed for testing when they reached the first or second true leaf stage.
A weighed amount, determined by the highest rate to be tested, of each test compound was placed in a 25 mL glass vial and was dissolved in 4 mL of a 97:3 v/v (volume/volume) mixture of acetone and dimethyl sulfoxide (DMSO) to obtain concentrated stock solutions. […] The concentrated stock solutions obtained were diluted with 20 mL of an aqueous mixture containing acetone, water, isopropyl alcohol, DMSO, Atplus 411F crop oil concentrate, and Triton X-155 surfactant in a 48.5:39:10:1.5:1.0:0.02 v/v ratio to obtain spray solutions containing the highest application rates. Additional application rates were obtained by serial dilution of 12 mL of the high rate solution into a solution containing 2 mL of 97:3 v/v (volume/volume) mixture of acetone and dimethyl sulfoxide (DMSO) and 10 mL of an aqueous mixture containing acetone, water, isopropyl alcohol, DMSO, Atplus 411F crop oil concentrate, and Triton X-155 surfactant in a 48.5:39:10:1.5:1.0:0.02 v/v ratio to obtain ½×, ¼×, ⅛× and 1/16× rates of the high rate. Compound requirements are based upon a 12 mL application volume at a rate of 187 L/ha. Formulated compounds were applied to the plant material with an overhead Mandel track sprayer equipped with a 8002E nozzles calibrated to deliver 187 L/ha over an application area of 0.503 square meters at a spray height of 18 inches (43 cm) above the average plant canopy height. Control plants were sprayed in the same manner with the solvent blank.
The treated plants and control plants were placed in a greenhouse as described above and watered by sub-irrigation to prevent wash-off of the test compounds. After 14 days, the condition of the test plants as compared with that of the untreated plants was determined visually and scored on a scale of 0 to 100 percent where 0 corresponds to no injury and 100 corresponds to complete kill.
By applying the well-accepted probit analysis as described by J. Berkson in Journal of the […], 48, 565 (1953) and by D. Finney in “Probit Analysis” Cambridge University Press (1952), the above data can be used to calculate GR50 and GR80 values, which are defined as growth reduction factors that correspond to the effective dose of herbicide required to kill or control 50 percent or 80 percent, respectively, of a target plant.

[2] = tested on: MOOVA = Monochoria vaginalis; test: Herbicidal activity in transplanted paddy rice, Monochoria vaginalis; assay type: in vivo; conditions: Pontederia vaginalis, 480 h, water-injected paddy, after 20-22 days; for pest or weed control at 140 g/ha: 140 g ai/ha; for pest or weed control at 70 g/ha: 70 g ai/ha; for pest or weed control at 17.5 g/ha: 17.5 g ai/ha; for pest or weed control at 35 g/ha: 35 g ai/ha
Description: Weed seeds or nutlets of the desired test plant species were planted in puddled soil (mud) prepared by mixing a non-sterilized mineral soil (28 percent silt, 18 percent clay, and 54 percent sand, with a pH of about 7.3 to 7.8 and an organic matter content of about 1.0 percent) and water at a ratio of 100 kg of soil to 19 L of water. The prepared mud was dispensed in 250 mL aliquots into 480 mL non-perforated plastic pots with a surface area of 91.6 square centimeters leaving a headspace of 3 centimeters in each pot. Rice seeds were planted in Sun Gro MetroMix® 306 planting mixture, which typically has a pH of 6.0 to 6.8 and an organic matter content of about 30 percent, in plastic plug trays. Seedlings at the second or third leaf stage of growth were transplanted into 650 mL of mud contained in 960 mL non-perforated plastic pots with a surface area of 91.6 square centimeters 4 days prior to herbicide application. The paddy was created by filling the 3 centimeter headspace of the pots with water. When required to ensure good germination and healthy plants, a fungicide treatment and/or other chemical or physical treatment was applied. The plants were grown for 4-14 days in a greenhouse with an approximate 14 hour photoperiod which was maintained at about 29° C. during the day and 26° C. during the night. Nutrients were added as Osmocote (17:6:10, N:P:K+minor nutrients) at 2 g (grams) per cup. Water was added on a regular basis to maintain the paddy flood, and supplemental lighting was provided with overhead metal halide 1000-Watt lamps as necessary. The plants were employed for testing when they reached the second or third true leaf stage. A weighed amount, determined by the highest rate to be tested, of each test compound was placed in a 120 mL glass vial and was dissolved in 20 mL of acetone to obtain concentrated stock solutions. […] The concentrated stock solutions obtained were diluted with 20 mL of an aqueous mixture containing 0.01% Tween 20 (v/v). Application rates of ½×, ¼×, ⅛× and 1/16× of the high rate were obtained by injecting an appropriate amount of the stock solution into the aqueous layer of the paddy. Control plants were treated in the same manner with the solvent blank. The treated plants and control plants were placed in a greenhouse as described above and water was added as needed to maintain a paddy flood. After 20-22 days, the condition of the test plants as compared with that of the untreated plants was determined visually and scored on a scale of 0 to 100 percent where 0 corresponds to no injury and 100 corresponds to complete kill.

## COC(=O)c1nc(-c2ccc(Cl)c(OCC(F)F)c2F)nc(N)c1Cl [Compound 10, 6-Amino-5-chloro-2-[4-chloro-3-(2,2-difluoroethoxy)-2-fluorophenyl]-pyrimidine-4-carboxylic acid methyl ester]
[1]
  pest or weed control at 140 g/ha: 85%
[2]
  pest or weed control at 140 g/ha: 100%

## COC(=O)c1nc(-c2c(F)cc(Cl)c(OC)c2F)nc(N)c1Cl [Compound 2, 6-amino-5-chloro-2-(4-chloro-2,6-difluoro-3-methoxy-phenyl)pyrimidine-4-carboxylic acid methyl ester]
[1]
  pest or weed control at 140 g/ha: 100%
[2]
  pest or weed control at 70 g/ha: 100%

## COC(=O)c1nc(-c2ccc(Cl)c(OC)c2Cl)nc(N)c1Cl [Compound 6, 6-Amino-5-chloro-2-(2,4-dichloro-3-methoxyphenyl)pyrimidine-4-carboxylic acid methyl ester]
[1]
  pest or weed control at 140 g/ha: 100%
[2]
  pest or weed control at 17.5 g/ha: 100%

## CCOc1c(Cl)ccc(-c2nc(N)c(Cl)c(C(=O)OC)n2)c1F [Compound 1, 6-amino-5-chloro-2-(4-chloro-3-ethoxy-2-fluorophenyl)-pyrimidine-4-carboxylic acid methyl ester]
[1]
  pest or weed control at 140 g/ha: 100%
[2]
  pest or weed control at 17.5 g/ha: 100%

## COC(=O)c1nc(-c2ccc(Cl)c(C(F)F)c2F)nc(N)c1Cl [Compound 7, 6-Amino-5-chloro-2-(4-chloro-3-difluoromethyl-2-fluorophenyl)pyrimidine-4-carboxylic acid methyl ester]
[1]
  pest or weed control at 140 g/ha: 100%
[2]
  pest or weed control at 140 g/ha: 100%

## COC(=O)c1nc(-c2ccc(Cl)c(OC)c2F)nc(N)c1Cl [Compound 3, 6-amino-5-chloro-2-(4-chloro-2-fluoro-3-methoxyphenyl)-pyrimidine-4-carboxylic acid methyl ester]
[1]
  pest or weed control at 140 g/ha: 100%
[2]
  pest or weed control at 17.5 g/ha: 100%

## COC(=O)c1nc(-c2ccc(Cl)c(OC)c2F)nc(N)c1Br [Compound 13, 6-amino-5-bromo-2-(4-chloro-2-fluoro-3-methoxyphenyl)-pyrimidine-4-carboxylic acid methyl ester]
[1]
  pest or weed control at 140 g/ha: 100%
[2]
  pest or weed control at 70 g/ha: 100%

## COC(=O)c1nc(-c2ccc(Cl)c(N(C)C)c2F)nc(N)c1Cl [Compound 8, 6-Amino-5-chloro-2-(4-chloro-3-dimethylamino-2-fluorophenyl)pyrimidine-4-carboxylic acid methyl ester]
[1]
  pest or weed control at 140 g/ha: 100%
[2]
  pest or weed control at 35 g/ha: 100%

## COC(=O)c1nc(-c2ccc3c(c2F)OCO3)nc(N)c1Cl [Compound 9, 6-Amino-5-chloro-2-(4-fluorobenzo[1,3]dioxol-5-yl)pyrimidine-4-carboxylic acid methyl ester]
[1]
  pest or weed control at 140 g/ha: 90%
[2]
  pest or weed control at 35 g/ha: 99%
